pIC50: −log10 of the molar value.
molecular target: Ribonucleotide reductase (Homo sapiens, UniProt P23921+Q7LG56); test: Human RNR Inhibition Effect: The inhibitory activity against the ribonucleotide reduction reaction (hereinafter referred to as RNR reaction) of the test compound was determined by measuring the formation of deoxycytidine diphosphate (hereinafter referred to as dCDP) from cytidine diphosphate (hereinafter referred to as CDP) by the following method.Human M1 subunit and human M2 subunit (mutant …
Sequence (P23921 whole entry, looked up): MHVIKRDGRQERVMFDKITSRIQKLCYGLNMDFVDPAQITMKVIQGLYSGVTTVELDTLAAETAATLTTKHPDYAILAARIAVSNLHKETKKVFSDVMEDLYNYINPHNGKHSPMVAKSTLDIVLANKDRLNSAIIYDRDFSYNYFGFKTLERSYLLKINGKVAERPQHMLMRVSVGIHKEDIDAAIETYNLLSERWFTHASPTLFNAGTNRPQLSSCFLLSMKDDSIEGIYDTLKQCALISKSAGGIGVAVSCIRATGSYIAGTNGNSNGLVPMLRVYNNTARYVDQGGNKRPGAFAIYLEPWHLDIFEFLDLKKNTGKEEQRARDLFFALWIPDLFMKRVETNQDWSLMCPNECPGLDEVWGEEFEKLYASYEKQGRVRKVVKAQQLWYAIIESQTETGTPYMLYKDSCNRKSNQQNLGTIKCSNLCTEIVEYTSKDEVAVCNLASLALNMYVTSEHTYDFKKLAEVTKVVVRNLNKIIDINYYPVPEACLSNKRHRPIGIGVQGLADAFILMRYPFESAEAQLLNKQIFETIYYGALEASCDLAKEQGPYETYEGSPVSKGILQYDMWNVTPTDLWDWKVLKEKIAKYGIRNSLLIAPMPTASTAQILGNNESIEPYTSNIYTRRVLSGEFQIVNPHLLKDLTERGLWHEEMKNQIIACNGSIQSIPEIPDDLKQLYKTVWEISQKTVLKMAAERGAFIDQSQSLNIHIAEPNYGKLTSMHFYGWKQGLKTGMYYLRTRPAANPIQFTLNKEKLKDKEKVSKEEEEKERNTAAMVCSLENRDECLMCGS
Sequence (Q7LG56 whole entry, looked up): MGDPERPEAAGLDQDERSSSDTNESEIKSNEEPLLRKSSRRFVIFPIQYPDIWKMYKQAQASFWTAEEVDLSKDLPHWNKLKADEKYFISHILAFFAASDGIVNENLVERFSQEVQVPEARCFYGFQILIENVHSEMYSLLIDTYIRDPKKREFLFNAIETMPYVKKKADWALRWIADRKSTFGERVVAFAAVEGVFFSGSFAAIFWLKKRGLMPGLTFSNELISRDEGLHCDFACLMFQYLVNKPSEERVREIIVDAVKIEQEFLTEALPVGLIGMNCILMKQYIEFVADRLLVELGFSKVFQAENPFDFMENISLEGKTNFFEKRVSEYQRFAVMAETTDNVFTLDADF

| pIC50 | SMILES |
| --- | --- |
| 6.44 | Cc1ccc(F)c([C@@H](C)[C@H](NS(=O)(=O)c2ccc3c(c2)C(C)(O)CCC3)c2n[nH]c(=O)o2)c1C (some centres undefined) |
| 6.40 | CC(O)c1nc(S(=O)(=O)N[C@H](c2n[nH]c(=O)o2)[C@H](C)c2cccc3c2CCC3)ccc1Cl (some centres undefined) |
| 6.49 | Cc1ccc(F)c([C@@H](C)[C@H](NS(=O)(=O)c2ccc3c(c2)CCCO3)c2n[nH]c(=O)o2)c1C |
| 6.00 | Cc1ccc(F)c([C@@H](C)[C@H](NS(=O)(=O)c2ncc(Br)cc2C(=O)O)c2n[nH]c(=O)o2)c1C |
| 6.64 | Cc1cccc2cccc([C@@H](C)[C@H](NS(=O)(=O)c3ccc(Cl)c4c3OCCC4O)c3n[nH]c(=O)o3)c12 (some centres undefined) |
| 7.05 | Cc1ccc(F)c([C@@H](C)[C@H](NS(=O)(=O)c2ccc(Cl)c(C(C)(C)O)n2)c2n[nH]c(=O)o2)c1C |
| 6.39 | Cc1ccc(F)c([C@@H](C)[C@H](NS(=O)(=O)c2ccc3[nH]ncc3c2)c2n[nH]c(=O)o2)c1C |
| 6.72 | Cc1ccc(F)c([C@@H](C)[C@H](NS(=O)(=O)c2ccc(Cl)c(C(=O)O)n2)c2n[nH]c(=O)o2)c1C |
| 6.36 | Cc1ccc(F)c([C@@H](C)[C@H](NS(=O)(=O)c2ccc(Cl)cc2OCC(F)F)c2n[nH]c(=O)o2)c1C |
| 6.77 | CC(O)c1c(Cl)ccc(S(=O)(=O)N[C@H](c2n[nH]c(=O)o2)[C@H](C)c2cccc3c2CCC3)c1Cl (some centres undefined) |
| 6.48 | Cc1ccc(F)c([C@@H](C)[C@H](NS(=O)(=O)c2cccc3c2OCCO3)c2n[nH]c(=O)o2)c1C |
| 6.18 | Cc1ccc(F)c([C@@H](C)[C@H](NS(=O)(=O)c2ccc3[nH]nnc3c2)c2n[nH]c(=O)o2)c1C |
| 7.40 | Cc1ccc(F)c([C@@H](C)[C@H](NS(=O)(=O)c2ncc(Cl)cc2C(N)=O)c2n[nH]c(=O)o2)c1C |
| 6.89 | Cc1ccc(F)c([C@@H](C)[C@H](NS(=O)(=O)c2ccc(Cl)c(C(=O)N3CCC4(COC4)C3)n2)c2n[nH]c(=O)o2)c1C |
| 6.26 | C[C@H](c1cccc2c1CCC2)[C@H](NS(=O)(=O)c1ccc(F)c(C(C)(C)O)c1F)c1n[nH]c(=O)o1 |
| 6.46 | Cc1ccc(F)c([C@@H](C)[C@H](NS(=O)(=O)c2ccc3c(c2)C(=O)CCC3)c2n[nH]c(=O)o2)c1C |
| 6.19 | C[C@H](c1cccc2c1CCC2)[C@H](NS(=O)(=O)c1ccc(Br)c(C(C)(C)O)c1)c1n[nH]c(=O)o1 |
| 6.08 | Cc1ccc(F)c([C@@H](C)[C@H](NS(=O)(=O)c2ccc3[nH]c(=O)[nH]c3c2)c2n[nH]c(=O)o2)c1C |
| 6.39 | Cc1ccc(S(=O)(=O)N[C@H](c2n[nH]c(=O)o2)[C@H](C)c2c(F)ccc(C)c2C)cc1 |
| 6.57 | Cc1ccc(F)c([C@@H](C)[C@H](NS(=O)(=O)c2c(F)cc(Cl)cc2C(=O)O)c2n[nH]c(=O)o2)c1C |
| 6.30 | Cc1ccc(F)c([C@@H](C)[C@H](NS(=O)(=O)c2ccc(Cl)cc2C(=O)N(C)C)c2n[nH]c(=O)o2)c1C |
| 6.13 | Cc1ccc(F)c([C@@H](C)[C@H](NS(=O)(=O)c2ccc3c(c2)CC(=O)N3)c2n[nH]c(=O)o2)c1C |
| 6.42 | Cc1ccc(F)c([C@@H](C)[C@H](NS(=O)(=O)c2ccc(Cl)cc2C(C)O)c2n[nH]c(=O)o2)c1C (some centres undefined) |
| 6.80 | Cc1ccc(F)c([C@@H](C)[C@H](NS(=O)(=O)c2ccc(F)c3c2OCCC3=O)c2n[nH]c(=O)o2)c1C |
| 7.05 | Cc1ccc(F)c([C@@H](C)[C@H](NS(=O)(=O)c2ccc(F)c(C(C)(C)O)c2F)c2n[nH]c(=O)o2)c1C |

| pIC50 | SMILES |
| --- | --- |
| 7.22 | Cc1ccc(F)c([C@@H](C)[C@H](NS(=O)(=O)c2cc(C(C)(C)O)c(Cl)cc2C(N)=O)c2n[nH]c(=O)o2)c1C |
| 7.10 | CC(=O)OC1(C)CCOc2c(S(=O)(=O)N[C@H](c3n[nH]c(=O)o3)[C@H](C)c3c(F)ccc(Br)c3C)ccc(Cl)c21 (some centres undefined) |
| 6.04 | Cc1ccc(F)c([C@@H](C)[C@H](NS(=O)(=O)c2ccc(Cl)c3c2C(O)CCC3)c2n[nH]c(=O)o2)c1C (some centres undefined) |
| 6.96 | Cc1ccc(F)c([C@@H](C)[C@H](NS(=O)(=O)c2ccc(Cl)c3cccnc23)c2n[nH]c(=O)o2)c1C |
| 6.09 | Cc1ccc(F)c([C@@H](C)[C@H](NS(=O)(=O)c2ccc3[nH]c(=O)c(=O)[nH]c3c2)c2n[nH]c(=O)o2)c1C |
| 6.70 | COc1c(S(=O)(=O)N[C@H](c2n[nH]c(=O)o2)[C@H](C)c2c(F)ccc(C)c2C)ncc(Cl)c1C(C)O (some centres undefined) |
| 6.89 | Cc1ccc(F)c([C@@H](C)[C@H](NS(=O)(=O)c2ccc3c(c2)OCCO3)c2n[nH]c(=O)o2)c1C |
| 6.68 | CC(=O)OC(C)c1nc(S(=O)(=O)N[C@H](c2n[nH]c(=O)o2)[C@H](C)c2cccc3c2CCC3)ccc1Cl (some centres undefined) |
| 6.92 | Cc1ccc(F)c([C@@H](C)[C@H](NS(=O)(=O)c2cccc3c2OCCC3(O)C(F)(F)F)c2n[nH]c(=O)o2)c1C (some centres undefined) |
| 7.05 | Cc1c(Br)ccc(F)c1[C@@H](C)[C@H](NS(=O)(=O)c1ccc(Cl)c2c1OCCC2=O)c1n[nH]c(=O)o1 |
| 6.35 | COC(=O)c1cc(Br)cnc1S(=O)(=O)N[C@H](c1n[nH]c(=O)o1)[C@H](C)c1c(F)ccc(C)c1C |
| 6.55 | Cc1ccc(F)c([C@@H](C)[C@H](NS(=O)(=O)c2ccc(Cl)c(-c3nnn[nH]3)c2)c2n[nH]c(=O)o2)c1C |
| 6.96 | COc1c(S(=O)(=O)N[C@H](c2n[nH]c(=O)o2)[C@H](C)c2c(F)ccc(C)c2C)ccc(Cl)c1C(C)(C)O |
| 6.47 | COC(=O)c1cc(Cl)cnc1S(=O)(=O)N[C@H](c1n[nH]c(=O)o1)[C@H](C)c1c(F)ccc(C)c1C |
| 6.39 | Cc1ccc(F)c([C@@H](C)[C@H](NS(=O)(=O)c2ccc(Cl)cc2C(=O)N2CCC2)c2n[nH]c(=O)o2)c1C |
| 6.36 | C[C@H](c1cccc2c1CCC2)[C@H](NS(=O)(=O)c1ccc(Cl)c(C(C)(C)O)n1)c1n[nH]c(=O)o1 |
| 6.60 | CNC(=O)c1cc(Br)cnc1S(=O)(=O)N[C@H](c1n[nH]c(=O)o1)[C@H](C)c1c(F)ccc(C)c1C |
| 6.74 | COc1c(S(=O)(=O)N[C@H](c2n[nH]c(=O)o2)[C@H](C)c2cccc(C)c2C)ccc(Cl)c1C(C)O (some centres undefined) |
| 6.82 | CCc1ccc(F)c([C@@H](C)[C@H](NS(=O)(=O)c2ccc(Cl)c(C(C)O)c2OC)c2n[nH]c(=O)o2)c1C (some centres undefined) |
| 7.00 | CC(=O)NC1CCOc2c(S(=O)(=O)N[C@H](c3n[nH]c(=O)o3)[C@H](C)c3c(F)ccc(C)c3C)ccc(Cl)c21 (some centres undefined) |
| 6.09 | Cc1ccc(F)c([C@@H](C)[C@H](NS(=O)(=O)c2ccc(Cl)c(S(N)(=O)=O)c2)c2n[nH]c(=O)o2)c1C |
| 6.10 | Cc1ccc(F)c([C@@H](C)[C@H](NS(=O)(=O)c2cc3c(cc2C(=O)O)OCCO3)c2n[nH]c(=O)o2)c1C |
| 6.57 | CC(=O)c1cc(Cl)ccc1S(=O)(=O)N[C@H](c1n[nH]c(=O)o1)[C@H](C)c1c(F)ccc(C)c1C |
| 6.77 | COC(=O)c1c(F)ccc(S(=O)(=O)N[C@H](c2n[nH]c(=O)o2)[C@H](C)c2c(F)ccc(C)c2C)c1F |
| 6.15 | Cc1ccc(F)c([C@@H](C)[C@H](NS(=O)(=O)c2cccc3[nH]ccc23)c2n[nH]c(=O)o2)c1C |

| pIC50 | SMILES |
| --- | --- |
| 6.37 | COc1c(S(=O)(=O)N[C@H](c2n[nH]c(=O)o2)[C@H](C)c2c(F)ccc(C)c2C)ncc(Cl)c1C(C)OC(C)=O (some centres undefined) |
| 7.10 | Cc1ccc(F)c([C@@H](C)[C@H](NS(=O)(=O)c2cc(C(C)(C)O)c(F)cc2C(N)=O)c2n[nH]c(=O)o2)c1C |
| 7.10 | COc1c(S(=O)(=O)N[C@H](c2n[nH]c(=O)o2)[C@H](C)c2c(F)ccc3ccccc23)ccc(Cl)c1C(C)O (some centres undefined) |
| 6.35 | Cc1ccc(F)c([C@@H](C)[C@H](NS(=O)(=O)c2ccc(Cl)s2)c2n[nH]c(=O)o2)c1C |
| 6.30 | Cc1ccc(F)c([C@@H](C)[C@H](NS(=O)(=O)c2ncc(Cl)cc2C(=O)O)c2n[nH]c(=O)o2)c1C |
| 7.22 | Cc1ccc(F)c([C@@H](C)[C@H](NS(=O)(=O)c2cc(C(C)(C)O)ccc2C(N)=O)c2n[nH]c(=O)o2)c1C |
| 6.02 | Cc1ccc(F)c([C@@H](C)[C@H](NS(=O)(=O)c2cc(F)c(Cl)cc2C(=O)O)c2n[nH]c(=O)o2)c1C |
| 6.33 | Cc1ccc(S(=O)(=O)N[C@H](c2n[nH]c(=O)o2)[C@H](C)c2c(F)ccc(C)c2C)cc1S(=O)(=O)N1CCCCC1 |
| 6.66 | Cc1ccc(F)c([C@@H](C)[C@H](NS(=O)(=O)c2ccc3c(c2)N(C)CCC3)c2n[nH]c(=O)o2)c1C |
| 6.74 | Cc1ccc(F)c([C@@H](C)[C@H](NS(=O)(=O)c2ccc3c(c2)C(C)(O)CCO3)c2n[nH]c(=O)o2)c1C (some centres undefined) |
| 7.00 | COc1nc(Cl)ccc1S(=O)(=O)N[C@H](c1n[nH]c(=O)o1)[C@H](C)c1c(F)ccc(C)c1C |
| 6.57 | Cc1ccc(F)c([C@@H](C)[C@H](NS(=O)(=O)c2ccc(Cl)cc2C(=O)NCCO)c2n[nH]c(=O)o2)c1C |
| 7.00 | Cc1c(Cl)ccc(F)c1[C@@H](C)[C@H](NS(=O)(=O)c1ncc(Cl)cc1C(N)=O)c1n[nH]c(=O)o1 |
| 6.23 | COc1cc(Br)ccc1S(=O)(=O)N[C@H](c1n[nH]c(=O)o1)[C@H](C)c1cccc2c1CCC2 |
| 7.10 | Cc1ccc(F)c([C@@H](C)[C@H](NS(=O)(=O)c2ccc(Cl)c(C(=O)N3CCC4(CC3)COC4)n2)c2n[nH]c(=O)o2)c1C |
| 7.70 | Cc1ccc(F)c([C@@H](C)[C@H](NS(=O)(=O)c2ncc(Br)cc2C(N)=O)c2n[nH]c(=O)o2)c1C |
| 6.64 | Cc1ccc(F)c([C@@H](C)[C@H](NS(=O)(=O)c2c(F)cc(F)c3c2OCCC3O)c2n[nH]c(=O)o2)c1C (some centres undefined) |
| 6.96 | CC(=O)OC1(C(F)(F)F)CCOc2c(S(=O)(=O)N[C@H](c3n[nH]c(=O)o3)[C@H](C)c3c(F)ccc(C)c3C)ccc(Cl)c21 (some centres undefined) |
| 6.74 | Cc1ccc(F)c([C@@H](C)[C@H](NS(=O)(=O)c2ccc(Cl)cc2C(=O)O)c2n[nH]c(=O)o2)c1C |
| 6.55 | Cc1ccc(F)c([C@@H](C)[C@H](NS(=O)(=O)c2ccc3c(c2)C(=O)CCO3)c2n[nH]c(=O)o2)c1C |
| 7.22 | CNC(=O)c1nc(S(=O)(=O)N[C@H](c2n[nH]c(=O)o2)[C@H](C)c2c(F)ccc(C)c2C)ccc1Cl |
| 6.77 | COc1c(S(=O)(=O)N[C@H](c2n[nH]c(=O)o2)[C@H](C)c2c(F)ccc(C)c2C)ccc(Cl)c1C(C)OC(C)=O (some centres undefined) |
| 6.72 | Cc1ccc(F)c([C@@H](C)[C@H](NS(=O)(=O)c2ccc(F)c(S(C)(=O)=O)c2)c2n[nH]c(=O)o2)c1C |
| 6.59 | Cc1ccc(F)c([C@@H](C)[C@H](NS(=O)(=O)c2ccc(Cl)cc2OC(F)F)c2n[nH]c(=O)o2)c1C |

— ChEMBL document CHEMBL5729675, “Sulfonamide compound or salt thereof” (2023)
